Reference: US20200261375A1, “Use Of (+)-2-Borneol In Preparation Of Drug For Promoting Upregulation Of Expression Of Sphingosine Kinase-1 And/Or BDNF” (SUZHOU PHARMAVAN CO, LTD., priority 2017, published 2020)

How the values were obtained:
Assay type in all cases: in vivo
[1] = test system: sphingosine kinase-1 (Sphk1); experiment: Rat model of focal cerebral ischemia-reperfusion (MCAO), genome-wide expression profiling of brain tissue around the infarct area: Sphk1; conditions: 2 mg/kg once by tail vein injection 2 hours after ischemia-reperfusion, brain tissue around the infarct area 48 hours after reperfusion, relative to the sham-operated group / model group
Procedure: (§1) Rat model of focal cerebral ischemia-reperfusion A rat model of middle cerebral artery occlusion (MCAD)-induced cerebral ischemia-reperfusion was prepared by thread occlusion of the internal carotid artery. A drug was administered once by tail vein injection 2 hours after ischemia-reperfusion. One dose group was set for (+)-2-borneol, i.e. 2 mg/kg. 48 hours after the cerebral ischemia-reperfusion, about a soybean size of brain tissue around the infarct area was harvested, sent to CapitalBio Technology Inc., Beijing, and subjected to genome-wide expression profiling by using Affymetrix GeneChip Rat Genome 230 2.0 Array Affymetrix Rat (Latin: Rattus norvegicus) Genome 230 2.0 chip.

[2] = test system: mouse model of focal cerebral motor cortex ischemia; experiment: Mouse model of focal motor cortex ischemia (photochemical), cylinder test; conditions: 3.0, 1.5, 0.75 mg/kg tail vein injection, 14 administrations, Day 14, 28, 42 after ischemic injury
Procedure: (§2) Long-term pharmacodynamic assay of (+)-2-borneol in a mouse model of focal motor cortex ischemia A mouse model of focal cerebral motor cortex ischemia was induced by photochemical method. Three dose groups were set for (+)-2-borneol, i.e. 3.0, 1.5, 0.75 mg/kg, respectively. Edaravone at a dose of 9 mg/kg was used as a positive control. A drug was administered once by tail vein injection 2 hours after cortex ischemia, and then administered every 24 hours, for a total of 14 administrations. A grid test was used to determine respectively the failure rate of forelimb on Day 14, Day 28 and Day 42 after ischemic injury; and a cylinder test was used to determine the motor asymmetry index of the affected forelimb and the contralateral forelimb on Day 14, Day 28 and Day 42 after ischemic injury to determine its effect on motor function. After the behavior measurements, 5 animals were randomly selected from each group and killed, and the brain was harvested for Golgi staining to determine the neuronal survival and dendritic richness in the penumbra area.

[3] = test system: brain-derived neurotrophic factor (BDNF); experiment: Rat model of focal cerebral ischemia-reperfusion (MCAO), genome-wide expression profiling of brain tissue around the infarct area: BDNF; conditions: 2 mg/kg once by tail vein injection 2 hours after ischemia-reperfusion, brain tissue around the infarct area 48 hours after reperfusion, relative to the sham-operated group
Procedure: as §1

[4] = test system: mouse model of focal cerebral motor cortex ischemia; experiment: Mouse model of focal motor cortex ischemia (photochemical), Golgi staining of brain; conditions: Golgi staining after the behavior measurements; 3.0, 1.5, 0.75 mg/kg tail vein injection, 14 administrations
Procedure: as §2

[5] = test system: mouse model of focal cerebral motor cortex ischemia; experiment: Mouse model of focal motor cortex ischemia (photochemical), grid test; conditions: 3.0, 1.5, 0.75 mg/kg tail vein injection, Day 14, 28, 42 after ischemic injury
Procedure: as §2

Compound: CC1(C)[C@@H]2CC[C@@]1(C)[C@@H](O)C2 [(+)-2-borneol]
- sphingosine kinase-1 (Sphk1) expression up-regulated [1]: 2.64 fold
- asymmetry index of both forelimbs [2]: significant decreases
- brain-derived neurotrophic factor (BDNF) expression up-regulated [3]: 2.67 fold
- dendritic length around the ischemic area [4]: significant improvements
- dendritic spine density around the ischemic area [4]: significant improvements
- number of dendritic branches around the ischemic area [4]: significant improvements
- motor function of mice with photochemically induced injury ([5]; 14 administrations every 24 hours): significantly improve
- failure rate of the left forelimb (affected side) ([5]; grid test, 14 administrations): significant decreases
